Assay results from patent publication US20080214583A1, “7H-Pyrrolo[2,3-D]Pyrimidine Derivatives, As Well As Their Therapeutically Acceptable Salts, Pharmaceutical Preparations Containing Them And Process For Production The Active Agent” (priority 2004, published 2008).

SMILES	melting point [°C]
Cc1c(C)n(-c2cccc(Cl)c2)c2ncnc(NN=C3C(=O)Nc4ccc(Br)cc43)c12 [Example 38, 5-bromo-3-{[5,6-dimethyl-7-(3-chloro-phenyl)-7H-pyrrolo[2,3-d]pyrimidine-4-yl]-hydrazono}-1,3-dihydro-indole-2-on]	292 to 294.5
Cc1c(C#N)c(Nc2ncnc3c2c(C)c(C)n3-c2cccc(Cl)c2)n(Cc2ccccc2)c1C [Example 63, 1-benzyl-2-[5,6-dimethyl-7-(3-chloro-phenyl)-7H-pyrrolo[2,3-d]pyrimidine-4-yl-amino]-4,5-dimethyl-1H-pyrrol-3-carbonitrile]	228.1 to 229
Cc1c(C)n(-c2cccc(Cl)c2)c2ncnc(Nc3cc(C(C)(C)C)nn3-c3cccc([N+](=O)[O-])c3)c12 [Example 4, [5-tert.-butyl-2-(3-nitro-phenyl)-2H-pyrazole-3-yl]-[7-(3-chlorophenyl)-5,6-dimethyl-7H-pyrrolo[2,3-d]pyrimidine-4-yl]-amine]	189 to 190
Cc1c(C)n(Cc2ccccc2)c2ncnc(Nc3c(C#N)c(-c4ccccc4)c(-c4ccccc4)n3Cc3ccccc3)c12 [Example 74, 1-benzyl-2-(7-benzyl-5,6-dimethyl-7H-pyrrolo[2,3-d]pyrimidine-4-yl-amino)-4,5-diphenyl-1H-pyrrol-3-carbonitrile]	197.1 to 197.6
Cc1c(C)n(-c2cccc(Cl)c2)c2ncnc(Nc3c(C#N)c(-c4ccccc4)c(-c4ccccc4)n3Cc3ccccc3)c12 [Example 62, 1-benzyl-2-[5,6-dimethyl-7-(3-chloro-phenyl)-7H-pyrrolo[2,3-d]pyrimidine-4-yl-amino]-4,5-diphenyl-1H-pyrrol-3-carbonitrile]	187.4 to 189.3
Cc1c(C)n(Cc2ccccc2)c2ncnc(C(=NN)c3ccc(O)c([N+](=O)[O-])c3)c12 [Example 28, 4-[(7-benzyl-5,6-dimethyl-7H-pyrrolo[2,3-d]pyrimidine-4-yl)-hydrazonomethyl]-2-nitro-phenol]	202 to 205
Cc1c(C)n(CCCN2CCOCC2)c2ncnc(NN=Cc3ccc(O)c([N+](=O)[O-])c3)c12 [Example 13, 4-{[5,6-dimethyl-7-(3-morpholine-4-yl-propyl)-7H-pyrrolo[2,3-d]pyrimidine-4-yl]hydrazonomethyl}-2-nitro-phenol]	158.8 to 161.5
Cc1ccc2c(c1)C(=NNc1ncnc3c1c(C)c(C)n3-c1cccc(Cl)c1)C(=O)N2 [Example 42, 3-{[5,6-dimethyl-7-(3-chloro-phenyl)-7H-pyrrolo[2,3-d]pyrimidine-4-yl]-hydrazono}-5-methyl-1,3-dihydro-indole-2-on]	302 to 303
Cc1c(C)n(Cc2ccccc2)c2ncnc(C(=NN)c3ccc(C#N)cc3)c12 [Example 35, 4-[(7-benzyl-5,6-dimethyl-7H-pyrrolo[2,3-d]pyrimidine-4-yl)-hydrazonomethyl]-benzonitrile]	223.5 to 225
Cc1c(C)n(-c2cccc(Cl)c2)c2ncnc(NN=C3C(=O)Nc4ccc(OC(F)(F)F)cc43)c12 [Example 44, 3-{[5,6-dimethyl-7-(3-chloro-phenyl)-7H-pyrrolo[2,3-d]pyrimidine-4-yl]-hydrazono}-5-trifluoromethoxy-1,3-dihydro-indole-2-on]	262 to 276
Cc1c(C)n(-c2cccc(Cl)c2)c2ncnc(C(=NN)c3ccc(O)c([N+](=O)[O-])c3)c12 [Example 21, 4-{[5,6-dimethyl-7-(3-chloro-phenyl)-7H-pyrrolo[2,3-d]pyrimidine-4-yl]-hydrazonomethyl}-2-nitro-phenol]	204.2 to 206.5
Cc1c(C#N)c(Nc2ncnc3c2c2ccccc2n3Cc2ccccc2)n(-c2cccc(Cl)c2)c1C [Example 64, 2-(9-benzyl-9H-1,3,9-triaza-fluorene-4-yl-amino)-1-(3-chloro-phenyl)-4,5-dimethyl-1H-pyrrol-3-carbonitrile]	252.2 to 253.1
COc1cc(C(=NN)c2ncnc3c2c(C)c(C)n3-c2cccc(Cl)c2)ccc1O [Example 24, 4-{[5,6-dimethyl-7-(3-chloro-phenyl)-7H-pyrrolo[2,3-d]pyrimidine-4-yl]-hydrazonomethyl}-2-methoxy-phenol]	146 to 187
Cc1cc(C(=NN)c2ncnc3c2c(C)c(C)n3Cc2ccccc2)cc(C)c1O [Example 29, 4-[(7-benzyl-5,6-dimethyl-7H-pyrrolo[2,3-d]pyrimidine-4-yl)-hydrazonomethyl]-2,6-dimethyl-phenol]	237 to 240
Cc1c(C)n(CCCN2CCOCC2)c2ncnc(Nc3cc(C(C)(C)C)nn3-c3cccc([N+](=O)[O-])c3)c12 [Example 16, [5-tert.-butyl-2-(3-nitro-phenyl)-2H-pyrazole-3-yl]-[5,6-dimethyl-7-(3-morpholine-4-yl-propyl)-7H-pyrrolo[2,3-d]pyrimidine-4-yl]-amine]	120.9 to 125.3
N#Cc1c(-c2ccccc2)c(-c2ccccc2)n(Cc2ccccc2)c1Nc1ncnc2c1c1ccccc1n2Cc1ccccc1 [Example 66, 1-benzyl-2-(9-benzyl-9H-1,3,9-triaza-fluorene-4-yl-amino)-4,5-diphenyl-1H-pyrrol-3-carbonitrile]	> 90
Cc1c(C#N)c(Nc2ncnc3c2c(C)c(C)n3Cc2ccccc2)n(Cc2ccccc2)c1C [Example 75, 1-benzyl-2-(7-benzyl-5,6-dimethyl-7H-pyrrolo[2,3-d]pyrimidine-4-yl-amino)-4,5-dimethyl-1H-pyrrol-3-carbonitrile]	236 to 239.1
COc1cc(C(=NN)c2ncnc3c2c(C)c(C)n3Cc2ccccc2)ccc1O [Example 33, 4-[(7-benzyl-5,6-dimethyl-7H-pyrrolo[2,3-d]pyrimidine-4-yl)-hydrazonomethyl]-2-methoxy-phenol]	220 to 221
Cc1c(C)n(Cc2ccccc2)c2ncnc(C(=NN)c3ccc(N(C)C)cc3)c12 [Example 31, {4-[(7-benzyl-5,6-dimethyl-7H-pyrrolo[2,3-d]pyrimidine-4-yl)-hydrazonomethyl]-phenyl}-dimethyl-amine]	219 to 221

The remaining lines, values ahead:

melting point [°C]	SMILES
298	Cc1c(C)n(Cc2ccccc2)c2ncnc(NN=C3C(=O)Nc4c(Cl)ccc(Cl)c43)c12 [Example 50, 3-[(7-benzyl-5,6-dimethyl-7H-pyrrolo[2,3-d]pyrimidine-4-yl)-hydrazono]-4,7-dichloro-1,3-dihydro-indole-2-on]
214 to 216	COc1ccccc1C=NNc1ncnc2c1c(C)c(C)n2Cc1ccccc1 [Example 17, N-(7-benzyl-5,6-dimethyl-7H-pyrrolo[2,3-d]pyrimidine-4-yl)-N′-(2-methoxy-benzylidene)-hydrazine]
302 to 303	Cc1c(C)n(Cc2ccccc2)c2ncnc(NN=C3C(=O)Nc4ccc(Cl)cc43)c12 [Example 48, 3-[(7-benzyl-5,6-dimethyl-7H-pyrrolo[2,3-d]pyrimidine-4-yl)-hydrazono]-5-chloro-1,3-dihydro-indole-2-on]
299	Cc1c(C)n(Cc2ccccc2)c2ncnc(NN=C3C(=O)Nc4cc(Cl)cc(Cl)c43)c12 [Example 49, 3-[(7-benzyl-5,6-dimethyl-7H-pyrrolo[2,3-d]pyrimidine-4-yl)-hydrazono]-4,6-dichloro-1,3-dihydro-indole-2-on]
292 to 293	Cc1c(C)n(Cc2ccccc2)c2ncnc(NN=C3C(=O)Nc4ccccc43)c12 [Example 46, 3-[(7-benzyl-5,6-dimethyl-7H-pyrrolo[2,3-d]pyrimidine-4-yl)-hydrazono]-1,3-dihydro-indole-2-on]
103 to 109.5	Cc1c(C)n(Cc2ccccc2)c2ncnc(NN=Cc3cccc([N+](=O)[O-])c3)c12 [Example 32, N-(7-benzyl-5,6-dimethyl-7H-pyrrolo[2,3-d]pyrimidine-4-yl)-N′-(3-nitro-benzylidene)-hydrazine]
284 to 285	Cc1c(C)n(-c2cccc(Cl)c2)c2ncnc(NN=C3C(=O)Nc4c(Cl)ccc(Cl)c43)c12 [Example 41, 4,7-dichloro-3-{[5,6-dimethyl-7-(3-chloro-phenyl)-7H-pyrrolo[2,3-d]pyrimidine-4-yl]-hydrazono}-1,3-dihydro-indole-2-on]
288 to 290	Cc1c(C)n(Cc2ccccc2)c2ncnc(NN=C3C(=O)Nc4ccc(Br)cc43)c12 [Example 45, 3-[(7-benzyl-5,6-dimethyl-7H-pyrrolo[2,3-d]pyrimidine-4-yl)-hydrazono]-5-bromo-1,3-dihydro-indole-2-on]
281 to 293	Cc1c(C)n(-c2cccc(Cl)c2)c2ncnc(NN=C3C(=O)Nc4ccccc43)c12 [Example 39, 3-{[5,6-dimethyl-7-(3-chloro-phenyl)-7H-pyrrolo[2,3-d]pyrimidine-4-yl]-hydrazono}-1,3-dihydro-indole-2-on]
271 to 279	Cc1c(C)n(-c2cccc(Cl)c2)c2ncnc(NN=C3C(=O)Nc4ccc(F)cc43)c12 [Example 43, 3-{[5,6-dimethyl-7-(3-chloro-phenyl)-7H-pyrrolo[2,3-d]pyrimidine-4-yl]-hydrazono}-5-fluoro-1,3-dihydro-indole-2-on]
314 to 315	Cc1c(C)n(-c2cccc(Cl)c2)c2ncnc(NN=C3C(=O)Nc4ccc(Cl)cc43)c12 [Example 40, 5-chloro-3-{[5,6-dimethyl-7-(3-chloro-phenyl)-7H-pyrrolo[2,3-d]pyrimidine-4-yl]-hydrazono}-1,3-dihydro-indole-2-on]
165 to 166	Cc1c(C)n(Cc2ccccc2)c2ncnc(NN=Cc3ccc(C(F)(F)F)cc3)c12 [Example 26, N-(7-benzyl-5,6-dimethyl-7H-pyrrolo[2,3-d]pyrimidine-4-yl)-N′-(4-trifluoromethyl-benzylidene)-hydrazine]
